From US12290513B2, “Therapeutic methods and compositions for treating movement disorders” (Vima Therapeutics, Inc., priority 2023, dated 2025)
Where two headings read alike, the source gives them in different places.

Experiments:
[1] = human, in vivo
Protocol: Experimental Design: All of the data collected in this example were run in a double-blind, randomized, placebo controlled setting of normal healthy adults. […] Dizziness was measured by the visual analog scale (VAS), a common clinical measure of dizziness.

[2] = dogs
[3] = In vivo PK of (S)-BTC in rats: plasma, brain, CSF; settings: male, Sprague Dawley, rat, 10 mg/kg single oral dose; for Kp: po, 10 mg/kg
Protocol: 6-8-week-old male Sprague Dawley rats were fasted overnight prior to treatment. […] Treated animals were exsanguinated prior to brain collection, and brain samples were frozen at −80° C. […] Concentrations of compounds in the plasma, brain, CSF samples were analyzed using a standard LC-MS/MS method to detect parent test compound from each of the processed tissues. The following pharmacokinetic parameters were calculated and analyzed using WinNonlin (Phoenix™, version 8.3): T1/2, Cmax, Tmax, MRT, AUCinf, AUClast, F %, ratio of brain/plasma, ratio of CSF/plasma, and ratio of CSF/brain.

[4] = target: T1, human muscarinic receptor M2 (Homo sapiens, UniProt P08172); test: Calcium flux assay (FLIPR), CHO cells expressing human M2; format: cell-based; settings: agonist mode
T1 construct: expressed in transfected cells
Protocol: All cells used in the following experiments were clonal populations of Chinese Hamster Ovary (CHO) cells stably expressing the corresponding human muscarinic receptor, except for the M4 cell line, which was a population of CHO cells transiently transfected with the human M4 receptor. Muscarinic agonism and antagonism of each receptor was measured by a quantitative calcium flux assay that is used for multiple classes of G-protein-coupled receptors, or GPCRs, as described elsewhere (e.g., Arkin et al., […], PMID: 22553878). Acetylcholine and atropine were used as positive controls for receptor agonism and antagonism, respectively. The procedure was as follows: • 1. Cells were thawed and cultured in cell culture medium (DMEM/F12 containing 10% FBS, 1× penicillin-streptomycin and 600 μg/ml hygromycin B) at 37° C. in 5% (v/v) CO2. • 2. One day before the assays, cells were detached using TrypLE™ and counted using a cell-counter. Only cells with >85% viability are used for the assay. • 3. […] Plates were read for 160 sec with 1 sec intervals to obtain the data in agonist mode, then kept at 25° C. in the dark for 30 min. • 11. […] Plates were read for 160 sec with 1 sec intervals, thereby measuring the ability for test compounds to antagonize the activation of muscarinic receptors by Ach.

M1 Muscarinic Receptor = M1 Muscarinic Receptor (Homo sapiens, UniProt P11229); test: (S)-BTC titration on M1 in the presence of fixed (R)-THP concentrations; format: cell-based; settings: with increasing concentration of (R)-THP (58.5, 195, 585 nM)
Protocol: All cells used in the following experiments were clonal populations of Chinese Hamster Ovary (CHO) cells stably expressing the corresponding human muscarinic receptor, except for the M4 cell line, which was a population of CHO cells transiently transfected with the human M4 receptor. […] The procedure was as follows: • 1. Cells were thawed and cultured in cell culture medium (DMEM/F12 containing 10% FBS, 1× penicillin-streptomycin and 600 μg/ml hygromycin B) at 37° C. in 5% (v/v) CO2. • 2. One day before the assays, cells were detached using TrypLE™ and counted using a cell-counter. […] 12,000 cells/well were seeded in 30 μl/well culture medium in a 384-well cell plate and incubated overnight at 37C, 5% (v/v) CO2. • 4. On the assay day, 2× dye solution was prepared following the manual of the FLIPR® Calcium 6 Assay Kit: • i. The dye was diluted with assay buffer (20 mM HEPES in 1× HBSS, PH 7.4); • ii. Probenecid was added to a final concentration of 5 mM; • iii. Cells were vortexed vigorously for 1-2 minutes. • 5. Medium was removed from the cell plate by flicking the cell plate on paper towels. • 6. 10 μl of assay buffer and 10 μl of 2× dye solution was added to each well of the cell plate. • 7. […] Plates were read for 160 sec with 1 sec intervals to obtain the data in agonist mode, then kept at 25° C. in the dark for 30 min. • 11.

share of exposure that is R-THP [1] [%] | share of total THP that was (R)-THP ([2]; IV 0.2 mg/kg Racemic THP) [%] | share of serum THP detected that was (R)-THP ([2]; oral 2 mg/kg Racemic THP, alone or co-dosed with Bethanechol) | Kp ([3]; CSF and plasma, read-out: AUClast Ratio (CSF/Plasma)) | Kp ([3]; CSF and plasma, read-out: Cmax Ratio (CSF/Plasma)) | Kp ([3]; brain and plasma, read-out: AUClast Ratio (Brain/Plasma)) | Kp ([3]; brain and plasma, read-out: Cmax Ratio (Brain/Plasma)) | AUC(0-t) ([3]; CSF, mean) [ng·h/mL] | Cmax ([3]; CSF, mean) [ng/mL] | Tmax ([3]; CSF, mean) [h] | Cmax ([3]; brain, mean) [ng/g] | Tmax ([3]; brain, mean) [h] | AUC(0-inf) ([3]; plasma, mean) [ng·h/mL] | AUC(0-t) ([3]; plasma, mean) [ng·h/mL] | Cmax ([3]; plasma, mean) [ng/mL] | Tmax ([3]; plasma, mean) [h] | half-life ([3]; plasma, mean) [h] | MRT inf ([3]; plasma, mean, read-out: MRTInf obs) [h] | EC50 [4] [nM] | agonist effect of (S)-BTC toward the M1 muscarinic receptor (M1 Muscarinic Receptor) | Structure (SMILES)
85 | ~60 | over 80% |  |  |  |  |  |  |  |  |  |  |  |  |  |  |  |  |  | O[C@@](CCN1CCCCC1)(c1ccccc1)C1CCCCC1 [(R)-THP, (R)-trihexyphenidyl]
 |  |  | 0.00615 | 0.00553 | 0.0499 | 0.0242 | 6.31 | 1.74 | 0.5 | 7.6 | 8 | 1080 | 1030 | 314 | 1 | 1.81 | 2.91 | 405 | decreases substantially | C[C@@H](C[N+](C)(C)C)OC(N)=O.[Cl-] [(S)-BTC, (S)-bethanechol]
